For 33 compounds, RP-LC retention time results are on record in the METLIN SMRT retention time set (Domingo-Almenara et al. 2019).

The data set can be described thus: gradient 5% acetonitrile 3 min, to 50% in 2 min, to 85% in 15 min, held 3 min, 100 µL/min. The conditions noted are these: column: Zorbax Extend-C18 2.1 x 50 mm; eluents: water / acetonitrile, 0.1% formic acid. The method, boiled down: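 Using water and acetonitrile that each contained 0.1% formic acid, mixtures of ~100 pure standards were separated at 100 μL/min on a Zorbax Extend-C18 column (2.1 × 50 mm, 1.8 μm). The HPLC fed a quadrupole time-of-flight mass spectrometer working in positive and negative ionization mode, with dead and dwell volumes of 40 μL and 900 μL. Data were acquired over 3 months. Retention time was read from computationally picked adduct peaks after manual inspection of each.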
On to `O=C(Cn1nc2c3cc(Cl)ccc3ncn2c1=O)Nc1cccc(Cl)c1`, for which the RP-LC retention time was found to be 730 s. With `Cc1ccc(Cn2c(=O)c(N3CCN(C(=O)Nc4ccc5c(c4)OCO5)CC3)nc3cccnc32)cc1` the figure was 1070 s.

Compound `CCc1ccccc1NC(=O)CSc1nc2nc(C)cc(C)n2n1` yielded an RP-LC retention time of 732 s. With `CCOC(=O)c1c(C)[nH]c(NC(=O)N2CCN(c3ccc(OC)cc3)CC2)c1C` the figure was 703 s; with `O=[N+]([O-])c1cccnc1Oc1cccnc1`, 716 s. In the case of `O=C(CCCc1ccccc1)NCC(=O)N1CCN(c2ccccn2)CC1`, the RP-LC retention time turned out to be 605 s. For `CCOC1CCN(C(=O)c2ccc(F)cc2)CC1` the value was 760 s; for `Cc1cccc2nnc(N3CCC(C(=O)NCc4ccccc4)CC3)n12`, 660 s.

The compound `O=C(NCCn1cnc2cc(C(=O)N3CCCC3)ccc21)Nc1cccc(Br)c1` displayed an RP-LC retention time of 623 s. With `Cc1c(C)n(-c2ccccc2)c2ncn(CC(=O)NCc3ccco3)c(=O)c12` the figure was 809 s; with `COc1ccc(-n2c(SCc3nc(-c4ccc(C)cc4)no3)nnc2-c2ccncc2)cc1`, 1000 s. With `CCn1ccc2c(cc(C(=O)Nc3ccc(C(C)C)cc3)n2C)c1=O` the figure was 902 s; with `CC(CCc1ccccc1)NC(=O)C1CCN(Cc2cn(C)c3ccc(Cl)cc23)CC1` (stereo not drawn), 790 s; with `O=C(Nc1cccc2ccc(-n3ccnc3)nc12)c1ccc2c(c1)OCO2`, 620 s. For `O=C(NCc1ccc(F)cc1)N1CCc2nc(-c3ccccc3)ncc2C1` the value was 874 s. In the case of `COc1ccc(-c2cc3n(n2)CCCN(C(=O)NCc2ccco2)C3)cc1`, the RP-LC retention time stood at 743 s. For `COc1ccc(-c2nnc3n2CCN(Cc2cccc(C#N)c2)C3)cc1` the value was 667 s; for `CCOCCCNC(=O)C1Cn2cccc2C(=O)N1C` (stereo not drawn), 597 s; for `CCOc1ccccc1NS(=O)(=O)c1cn(CC(C)C)c2ncccc12`, 1030 s.

`CCOC(=O)c1c(C)n(C)c2ccc(OCCN(C)C)cc12` registered an RP-LC retention time of 632 s. For `CCc1ccc(N2C(=O)CN(CCc3ccccc3F)[C@H]3CS(=O)(=O)C[C@H]32)cc1` the value was 904 s; for `Cc1ccc(-c2nnc(Cc3nc(-c4ccc(Br)cc4)no3)o2)cc1F`, 1220 s.

As for `Cc1cccc(Nc2nc(C)c(C(=O)NC3CCN(Cc4ccccc4)CC3)s2)n1`, the RP-LC retention time is 645 s. Consider `CS(=O)(=O)N1CCN(C(=O)c2nn(CC3CC3)c3c2CNCC3)CC1`, for which the RP-LC retention time is 558 s. With `Cc1nc2cc(N3CC(C(=O)Nc4ccc(F)cc4C)CC3=O)ccc2o1` (stereo not drawn) the figure was 718 s; with `CCN(CC)C(=O)Cn1c(=O)c2cnc(-c3ccc(Cl)cc3)nc2n(CC)c1=O`, 740 s. For `O=C(Cc1c(Sc2cccc(F)c2)[nH]c2ccccc12)N1CCN(c2ncccn2)CC1` the value was 975 s; for `O=C(CCn1c(N2CCCC2)nc2ccsc2c1=O)Nc1cccc(Cl)c1`, 892 s. For `CN1CCn2cc(S(=O)(=O)NCc3cc(F)cc(F)c3)cc2C1=O` the value was 691 s. `Cc1ccc(NC(=O)c2cc(C(C)C)n3nccc3n2)cc1C` yielded an RP-LC retention time of 1250 s. For `CNC(=O)c1nc(C(C)(C)NC(=O)c2cnccn2)nc2c1OCO2` the value was 631 s; for `O=C(NCc1cccs1)c1nc(-c2ccnc(N3CCCCC3)c2)no1`, 742 s; for `O=C(C1CCN(c2ncnc3c2oc2ccccc23)CC1)N1CCN(C2CCCCC2)CC1`, 590 s.
